Test results from patent publication US8178324B2, “Deracemisation of amines” (Ingenza Limited, priority 2002, dated 2012).
Entries after “also recorded” stand apart in the source; their conditions may differ. Where two headings read alike, the source gives them in different places.

Legend:
[1] = target: T1, N336S mutant A. niger monoamine oxidase (Aspergillus niger, UniProt P46882, A300V/K348M/L304V/N336S/R450G); format: biochemical; parameters: key to Relative Rate (symbol): *: No measurable rate; settings: for Relative Rate: relative to (S)-α Methylbenzylamine = 1
T1 construct: made in house; host or cells: E. coli BL21(DE3), pET16b
T1 sequence (P46882 whole entry A300V/L304V/N336S/K348M/R450G): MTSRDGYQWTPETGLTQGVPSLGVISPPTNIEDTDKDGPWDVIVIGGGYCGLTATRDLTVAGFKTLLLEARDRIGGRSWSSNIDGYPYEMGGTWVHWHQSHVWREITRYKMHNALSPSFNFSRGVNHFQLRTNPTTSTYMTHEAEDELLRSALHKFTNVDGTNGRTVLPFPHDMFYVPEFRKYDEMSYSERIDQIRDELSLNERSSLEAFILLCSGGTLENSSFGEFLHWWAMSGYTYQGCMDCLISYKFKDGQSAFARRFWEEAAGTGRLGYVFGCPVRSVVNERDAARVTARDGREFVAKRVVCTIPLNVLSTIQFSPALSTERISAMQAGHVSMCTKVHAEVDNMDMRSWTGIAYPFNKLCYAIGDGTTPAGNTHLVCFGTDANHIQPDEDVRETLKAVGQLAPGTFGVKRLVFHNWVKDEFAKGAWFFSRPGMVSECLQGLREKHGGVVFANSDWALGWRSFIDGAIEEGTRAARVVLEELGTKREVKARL
Experimental: (§1) 5 ml phosphate buffer (1 M, pH 7.6)
(§2) 500 μl 2,4,6-tribromo-3-hydroxybenzoic acid (2% in DMSO)
(§3) 37.5 μl 4-aminoantipyrine (1.5 M) • 30 μl amine substrate (final concentration 0.015-5 mM) • 44.4 ml water
(§4) Assay Conditions: • 990 μl assay mixture • 5 μl horse radish peroxidase (1 mg·ml^−1) • 10 μl enzyme
(§5) The spectrophotometer was blanked against assay mixture and HRP. Enzyme was added and the absorbance at 500 nm measured at 3 s intervals for a 10 minute period.
The activity of the mutant enzyme described above was studied in relation to a variety of amine substrates. […]

[2] = target: Type II monoamine oxidase from Aspergillus niger (MAO-N) (Aspergillus niger, UniProt P46882, A300V/K348M/L304V/R450G); settings: literature refs 10-12; cited from earlier work
Chain of Type II monoamine oxidase from Aspergillus niger (MAO-N) (P46882 whole entry A300V/L304V/K348M/R450G): as the sequence (P46882 whole entry A300V/L304V/N336S/K348M/R450G) above, with S336N counted along it

[3] = target: T2, wild-type A. niger MAO-N enzyme (Aspergillus niger, UniProt P46882, A300V/K348M/L304V/R450G); assay: Colorimetric hydrogen peroxide (HRP/TBHBA/4-aminoantipyrine) amine oxidase assay, purified wild-type enzyme; format: biochemical; settings: for kcat, Wild-type Enzyme: purified wild-type enzyme, active enzyme from FAD absorbance at 458 nm
T2 construct: made in house; host or cells: E. coli BL21(DE3), pET16b
T2 sequence (P46882 whole entry A300V/L304V/K348M/R450G): as the sequence (P46882 whole entry A300V/L304V/N336S/K348M/R450G) above, with S336N counted along it
Experimental: (§6) The wild-type enzyme was also purified by the same protocol and the two enzymes compared for substrate specificity and enantioselectivity.
as §1, §2, §3, §4, §5
(§7) The Km values were calculated using ‘KaleidaGraph for Windows’ (Synergy Software). For calculation of the kcat, the active enzyme concentration was determined by estimating the FAD content from the absorbance at 458 nm using an extinction coefficient of 11 mM^−1 cm^−1 (see ref 12).

[4] = target: T3, mutant A. niger monoamine oxidase (N336S) (Aspergillus niger, UniProt P46882, A300V/K348M/L304V/N336S/R450G); assay: Colorimetric hydrogen peroxide amine oxidase assay, purified mutant enzyme (N336S); format: biochemical
T3 construct: made in house; host or cells: E. coli BL21(DE3), pET16b
T3 sequence (P46882 whole entry A300V/L304V/N336S/K348M/R450G): as the sequence (P46882 whole entry A300V/L304V/N336S/K348M/R450G) above
Experimental: as §6
The mutated gene was also sequenced and the sequence is shown in SEQ ID NO: 2. There was a single amino acid change from the wild-type enzyme with serine replacing asparagine at position 336.
LB medium (6×300 ml) containing ampicillin (100 μg·ml^−1) in 1 L baffled flasks was inoculated with a single colony of monoamine oxidase mutant from an LB agar plate. Cultures were incubated at 30° C. for 22 hours (OD600˜3.6) then harvested and washed with phosphate buffer (50 mM, pH 8) to yield a yellow-brown pellet (11.2 g).
The pellet was resuspended in Tris/HCl buffer (25 mM, pH 7.8, 30 ml) and sonicated on ice (30 s on, 30 s off for 10 minutes). The suspension was then centrifuged (20,000 rpm, 4° C.) until clear supernatant was obtained and the supernatant dialysed against Tris/HCl buffer (25 mM, pH 7.8). The cell free extract was filtered through 0.45 μm sterile membrane and chromatographed on a QSepharose anion exchange column. Fractions were assayed using colorimetric hydrogen peroxide based assay and active fractions were stored at −80° C. The active fraction has a protein content of 1 mg·ml^−1, and a specific activity of 0.193 U·mg^−1 against amylamine.
as §1, §2, §3, §4, §5, §7

[5] = target: T4, mutant amine oxidase (N336S) (Aspergillus niger, UniProt P46882, A300V/K348M/L304V/N336S/R450G); assay: Chiral HPLC (Chiralcel CrownPak CR+) check of oxidation by the mutant; format: biochemical; settings: after 24 h
T4 construct: made in house; host or cells: E. coli BL21(DE3), pET16b
T4 sequence (P46882 whole entry A300V/L304V/N336S/K348M/R450G): as above
Experimental: The data reveal that the activity of the mutant amine oxidase towards L-AMBA (kcat=8.0 min-1) is 47 fold higher than the wild-type (kcat=0.17 min-1). Moreover the selectivity of the mutant for the L-enantiomer versus D-AMBA (ca. 100:1) has also been increased relative to the wild type enzyme (ca. 17:1). Thus the outcome of the in vitro evolution experiments has been to simultaneously improve both the enantioselectivity and catalytic activity of the enzyme. For comparison, the activity towards the best substrate for the wild-type enzyme, namely amylamine, and also benzylamine, is presented.

MAO mutant N336S = target: T5, MAO mutant N336S (Aspergillus niger, UniProt P46882, A300V/K348M/L304V/N336S/R450G); assay: Stereoinversion reaction with MAO mutant N336S and ammonia-borane, HPLC monitoring; format: biochemical; settings: ammonia-borane, 30° C., 24 hours
T5 construct: made in house; host or cells: E. coli BL21(DE3), pET16b
T5 sequence (P46882 whole entry A300V/L304V/N336S/K348M/R450G): as above
Experimental: More Specifically, MAO mutant N336S (100 μl of 0.193 U·ml^−1=0.02 U) was added to a solution of L-AMBA (0.13 μl, final concentration=0.4 mM) and ammonia-borane complex (10 μl of 4M solution, final concentration=80 mM, 200 eq) in phosphate buffer (400 μl, 20 mM, pH8). A 10 μl aliquot was diluted in 990 μl perchloric acid, pH 1.5 and analysed by HPLC. The reaction mixture was incubated at 30° C. and the reaction monitored by HPLC at regular intervals until no further reaction was observed.
Analytical conditions: Column=Chiralcel CrownPak CR+ • Mobile phase=100% perchloric acid, pH 1.5 • Flow rate=0.8 ml·min^−1 • Detection=200 nm • Temperature=25° C. • r.t. (L-AMBA)=12.8 min • r.t. (D-AMBA)=16.5 min

Row | Structure (SMILES) | Relative Rate [1] | Relative Rate (symbol) [1] | further results
1 | COc1ccc([C@H](C)N)cc1 [(S)-1-4-Methoxyphenylethylamine] | 0.81 | – | –
2 | C[C@H](N)c1ccc([N+](=O)[O-])cc1 [(S)-α-Methyl-4-nitrobenzylamine] | 0.91 | – | –
3 | Cc1ccc([C@H](C)N)cc1 | 0.28 | – | –
4 | Cc1ccc([C@@H](C)N)cc1 | – | * | –
5 | CC(C)CC(C)N (stereo not drawn) [1,3-Dimethylbutylamine] | 1.8 | – | –
6 | CC(C)[C@@H](C)N [(R)-3-Methyl-2-butylamine] | – | * | –
7 | CCCCN [butylamine] | – | – | reported activity of MAO-N [2]: high activity
8 | CCCCCCN [Hexylamine] | 18.6 | – | –
9 | CC(NC(C)c1ccccc1)c1ccccc1 (stereo not drawn) [Bis(α-methyl)benzylamine] | – | * | –
10 | CCCCCCCN [N-heptylamine] | 12.1 | – | –
11 | CCCCCN [amylamine] | 25.2 | – | reported activity of MAO-N [2]: high activity; kcat, Wild-type Enzyme [3]: 16.67 s⁻¹
12 | CC1CCCCC1N (stereo not drawn) [2-Methylcyclohexylamine] | 0.43 | – | –
13 | CC(N)c1ccccc1 [L-AMBA, L-α-methylbenzylamine] | 1 | – | activity (kcat) of the mutant relative to the wild-type ([4]; mutant kcat versus wild-type kcat): 47 fold; Km ([4]; purified N336S mutant): 400 µM; kcat, Mutant Enzyme ([4]; purified N336S mutant): 0.133 s⁻¹; oxidation by the mutant seen by chiral HPLC [5]: complete oxidation; activity of the wild-type A. niger MAO-N enzyme [3]: very low, but measurable activity; kcat, Wild-type Enzyme [3]: 0.00283 s⁻¹
14 | C[C@@H](N)c1ccc([N+](=O)[O-])cc1 [(R)-α-Methyl-4-nitrobenzylamine] | 0.06 | – | –
15 | CC(N)c1ccccc1 (racemic) [(rac)-α Methylbenzylamine] | – | * | –
16 | C[C@H](N)C(C)(C)C [(S)-3-3-Dimethyl-2-butylamine] | 1.4 | – | –
17 | NCc1ccccc1 [benzylamine] | – | – | kcat, Mutant Enzyme ([4]; purified N336S mutant): 3.27 s⁻¹; reported activity of MAO-N [2]: active, albeit at a lower rate; kcat, Wild-type Enzyme [3]: 6.18 s⁻¹
18 | CC(N)c1ccc(Br)cc1 (racemic) [(rac)-4-Bromo-α-phenylethylamine] | – | * | –
19 | COc1ccc([C@@H](C)N)cc1 [(R)-1-4-Methoxyphenylethylamine] | 0.13 | – | –
20 | C[C@@H](N)C(C)(C)C [(R)-3-3-Dimethyl-2-butylamine] | – | * | –
21 | C[C@H](N)c1ccc(Br)cc1 [(S)-4-Bromo-α-phenylethylamine] | 0.24 | – | –
22 | CC(C)[C@H](C)N [(S)-3-Methyl-2-butylamine] | 5.4 | – | –
23 | C[C@@H](N)c1ccc(Br)cc1 [(R)-4-Bromo-α-phenylethylamine] | – | * | –
24 | CC(N)c1ccccc1 [D-AMBA, α-methylbenzylamine] | – | * | kcat, Mutant Enzyme ([4]; purified N336S mutant): 0.0013 s⁻¹; conversion under stereoinversion conditions (MAO mutant N336S): no conversion; also recorded: no reaction was observed; oxidation by the mutant seen by chiral HPLC [5]: no detectable conversion; activity of the wild-type A. niger MAO-N enzyme ([3]; listed as D-enantiomer): even slower oxidation; kcat, Wild-type Enzyme [3]: 0.00017 s⁻¹
